Converted amounts (≈) assume the structure as drawn. “And” between values parts separate entries of the source, which are not always exact repeats. Equal entries are not always repeated. “Also recorded” adds a separate entry of the source.
Assays:
[1] = molecular target: T1, mouse eugenol OR (mOR-EG) (Mus musculus, UniProt Q920P2); test: mOR-EG/AC Ca2+ imaging: mOR-EG + Gαolf + CNGC-camp in HEK293T cells; type: cell-based; settings: for decay time 90% to 10%, AC-dependent Ca2+ response / time of peak, AC-dependent Ca2+ response / time to rise 10% to 90%, AC-dependent Ca2+ response: saturating response parameters
T1 sequence (Q920P2 1-313): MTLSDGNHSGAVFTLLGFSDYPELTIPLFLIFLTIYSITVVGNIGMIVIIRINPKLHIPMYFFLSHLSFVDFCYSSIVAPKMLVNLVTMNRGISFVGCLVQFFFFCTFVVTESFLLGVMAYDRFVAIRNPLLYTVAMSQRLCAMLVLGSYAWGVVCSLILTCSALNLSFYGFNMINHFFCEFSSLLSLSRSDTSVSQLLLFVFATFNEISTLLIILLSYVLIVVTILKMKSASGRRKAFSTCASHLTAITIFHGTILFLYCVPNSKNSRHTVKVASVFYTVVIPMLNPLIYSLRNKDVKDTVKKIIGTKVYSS

[2] = pH7; source not stated; cited from earlier work
[3] = molecular target: T1, mouse eugenol OR (mOR-EG); test: dual read-out assay, mOR-EG/PLC and mOR-EG/AC responses compared; type: cell-based; settings: for functional bias between PLC and AC pathways (in words): pair-wise comparison of EC50 values; for AC-/PLC- mediated Ca2+ response (result in words): both read-outs, up to 1-5 mM
[4] = source not stated; cited from earlier work
[5] = molecular target: T1, mouse eugenol OR (mOR-EG); test: mOR-EG/PLC Ca2+ imaging: mOR-EG + Gα15 in HEK293T cells; type: cell-based; settings: for decay time 90% to 10%, PLC-dependent Ca2+ response / time of peak, PLC-dependent Ca2+ response / time to rise 10% to 90%, PLC-dependent Ca2+ response: saturating response parameters
[6] = system: AgOR65+AgOrco; test: Ca2+ response of HEK293T cells expressing mosquito OR AgOR65+AgOrco; type: cell-based, A. gambiae; settings: 1μM, 5-s stimulation
[7] = molecular target: T1, mouse eugenol OR (mOR-EG); type: cell-based; settings: up to 1 mM
[8] = system: HEK293T cells; test: control HEK293T cells lacking components of the read-out; type: cell-based
[9] = molecular target: T1, mouse eugenol OR (mOR-EG); test: mOR-EG/PLC Ca2+ response in MMDD1 macula densa cells; type: cell-based; settings: range and mean
[10] = system: mOR-EG; settings: incubation at least 15 min; ref [22]; cited from earlier work
[11] = 100μM, range over cells and mean±SEM
[12] = cumulative concentration-dependence

Q: Which EC50 [1] does the source give for C=CCc1ccc(OC)c(OC)c1 [methyl eugenol] here?
A: The EC50 was 177 ± 11 µM.

Q: And the “decay time 90% to 10%, AC-dependent Ca2+ response” value [1]?
A: The value was 101.2 ± 6 s.

Q: And the “time of peak, AC-dependent Ca2+ response” value [1]?
A: The value was 92 ± 3 s.

Q: What about the “time to rise 10% to 90%, AC-dependent Ca2+ response” value [1] of the same compound?
A: The value was 41.6 ± 2.2 s.

Q: And the solubility [2]?
A: Its solubility is 4.3 mmol/L (≈ 766 µg/mL).

Q: And the “functional bias between PLC and AC pathways (in words)” value [3]?
A: The value was “activated both pathways with similar EC50 values”.

Q: What about the logP [4] of the same compound?
A: The logP was 2.7.

Q: And the EC50 [5]?
A: Its EC50 is 165 µM.

Q: And the “decay time 90% to 10%, PLC-dependent Ca2+ response” value [5]?
A: Its value is 39.8 ± 2.3 s.

Q: And the “time of peak, PLC-dependent Ca2+ response” value [5]?
A: The value was 19.8 ± 1.2 s.

Q: What about the “time to rise 10% to 90%, PLC-dependent Ca2+ response” value [5] of the same compound?
A: Its value is 5.4 ± 0.6 s.

Q: For C=CCc1ccc(O)c(OC)c1 [eugenol], which “response kinetics vs mOR-EG responses” value [6] is on record?
A: Its value is “much faster response”.

Q: And the EC50 [1]?
A: Its EC50 is 53 ± 11 µM.

Q: And the “Tdecay, mOR-EG/AC response” value [1, 11]?
A: Its value is 102 ± 11 s and 101.9 ± 10.9 s.

Q: And the “Tpeak, mOR-EG/AC response” value [1, 11]?
A: The value was 76 ± 6 s and 75.9 ± 6.1 s.

Q: And the “Trise, mOR-EG/AC response” value [1, 11]?
A: Its value is 32 ± 3 s and 32.2 ± 3.0 s.

Q: And the “Ca2+ response on removal of extracellular Ca2+, mOR-EG/Gαs(olf) cells” value ([1]; 1mM)?
A: The value was “completely abolished the response”.

Q: What about the “Tdecay, mOR-EG/AC response” value ([1]; 5mM) of the same compound?
A: The value was 125.1 ± 4.9 s.

Q: And the “Tpeak, mOR-EG/AC response” value ([1]; 5mM)?
A: Its value is 90.5 ± 2.9 s.

Q: And the “Trise, mOR-EG/AC response” value ([1]; 5mM)?
A: The value was 38.5 ± 1.5 s.

Q: And the “Hill coefficient, mOR-EG/AC response” value [1, 12]?
A: The value was 0.97.

Q: What about the “decay time 90% to 10%, AC-dependent Ca2+ response” value [1] of the same compound?
A: Its value is 128.2 ± 4.9 s.

Q: And the “time of peak, AC-dependent Ca2+ response” value [1]?
A: The value was 90.5 ± 4.4 s.

Q: And the “time to rise 10% to 90%, AC-dependent Ca2+ response” value [1]?
A: The value was 39.4 ± 2.2 s.

Q: And the “slow Gαs(olf)-dependent response in dual-response cells” value [7]?
A: The value was “obvious in the signal evoked by eugenol”.

Q: And the “Ca2+ response in untransfected cells or cells expressing mOR-EG alone” value ([8]; 0.5-5mM, n>1000)?
A: The value was “Neither untransfected HEK293T cells nor cells expressing mOR-EG alone were sensitive”.

Q: What about the “Ca2+ response in cells expressing mOR-EG and Gαolf without CNGC-camp” value ([8]; eugenol 0.5-2mM, forskolin 20μM, n>500) of the same compound?
A: Its value is “did not generate noticeable Ca^2+ responses”.

Q: What about the “functional bias between PLC and AC pathways (in words)” value [3] of the same compound?
A: Its value is “activated both pathways with similar EC50 values”.

Q: What about the “Tpeak, mOR-EG/PLC response” value [9] of the same compound?
A: Its value is 13 ± 0.8 s.

Q: And the “Tdecay, mOR-EG/PLC response” value ([5]; 25μM)?
A: Its value is 35.0 ± 0.8 s.

Q: And the “Tpeak, mOR-EG/PLC response” value ([5]; 25μM)?
A: Its value is 18.6 ± 0.8 s.

Q: And the “Trise, mOR-EG/PLC response” value ([5]; 25μM)?
A: Its value is 10.8 ± 0.9 s.

Q: And the “Tdecay, mOR-EG/PLC response” value [5, 11]?
A: Its value is 49.4 ± 1.8 s.

Q: What about the “Tpeak, mOR-EG/PLC response” value [5, 11] of the same compound?
A: The value was 31.5 ± 0.7 s.

Q: What about the “Trise, mOR-EG/PLC response” value [5, 11] of the same compound?
A: The value was 8.4 ± 0.3 s.

Q: What about the “Tpeak, mOR-EG/PLC response” value ([5]; 1mM) of the same compound?
A: Its value is 15.4 ± 0.4 s.

Q: And the “Ca2+ response on removal of extracellular Ca2+, mOR-EG/Gα15 cells” value ([5]; 1mM, 5-s pulse)?
A: Its value is “otherwise not affecting the Ca^2+ response”.

Q: And the “Tdecay, mOR-EG/PLC response” value ([5]; 5mM)?
A: The value was 57.9 ± 3.8 s.

Q: And the “Trise, mOR-EG/PLC response” value ([5]; 5mM)?
A: The value was 5.6 ± 0.3 s.

Q: And the “Hill coefficient, mOR-EG/PLC response” value [5, 12]?
A: The value was 1.2.

Q: And the “decay time 90% to 10%, PLC-dependent Ca2+ response” value [5]?
A: Its value is 52.6 ± 1.1 s.

Q: What about the “time of peak, PLC-dependent Ca2+ response” value [5] of the same compound?
A: The value was 15.4 ± 0.4 s.

Q: And the “time to rise 10% to 90%, PLC-dependent Ca2+ response” value [5]?
A: The value was 7.6 ± 0.2 s.

Q: With C/C=C/c1ccc2c(c1)OCO2 [isosafrole] as the compound, how does the solubility [2] read?
A: The solubility was 0.6 mmol/L (≈ 97.3 µg/mL).

Q: What about the “AC-/PLC- mediated Ca2+ response (result in words)” value (“AC-/PLC- mediated Ca2+ response” for short) [3] of the same compound?
A: Its value is “failed to activate any response; also recorded: non agonist, antagonist (*)”.

Q: What about the logP [4] of the same compound?
A: Its logP is 3.9.

Q: Which solubility [2] does the source give for CC(C)c1ccc(O)cc1 [4-isopropylphenol] here?
A: The solubility was 15 mmol/L (≈ 2040 µg/mL).

Q: What about the “AC-/PLC- mediated Ca2+ response” value [3] of the same compound?
A: The value was “failed to activate any response; also recorded: no effects”.

Q: What about the logP [4] of the same compound?
A: Its logP is 3.

Q: For COC(=O)c1c(C)cc(O)c(C)c1O [mousse cristal], which “faster Trise of mOR-EG/AC response than eugenol” value [1] is on record?
A: Its value is 30%.

Q: And the “normalized peak magnitude, mOR-EG/AC response” value ([1]; normalized to eugenol)?
A: The value was 1.12±0.13.

Q: And the “decay time 90% to 10%, AC-dependent Ca2+ response” value [1]?
A: Its value is 117.6 ± 5.3 s.

Q: And the “time of peak, AC-dependent Ca2+ response” value [1]?
A: Its value is 107.3 ± 2.4 s.

Q: What about the “time to rise 10% to 90%, AC-dependent Ca2+ response” value [1] of the same compound?
A: The value was 32.6 ± 1.6 s.

Q: What about the “AC-/PLC- mediated Ca2+ response” value [3] of the same compound?
A: The value was “full agonist for mOR-EG”.

Q: What about the “functional bias between PLC and AC pathways (in words)” value [3] of the same compound?
A: Its value is “biased activation of the PLC pathway; also recorded: strongly activating both pathways yet with a different apparent affinity”.

Q: And the “potency in mOR-EG/PLC signaling in comparison to mOR-EG/AC signaling” value ([3]; ratio of EC50 values)?
A: The value was “more than 2 fold”.

Q: What about the logP [4] of the same compound?
A: Its logP is 10/2.8.

Q: And the “decay time 90% to 10%, PLC-dependent Ca2+ response” value [5]?
A: Its value is 74 ± 4 s.

Q: And the “time of peak, PLC-dependent Ca2+ response” value [5]?
A: Its value is 30.7 ± 1.4 s.

Q: And the “time to rise 10% to 90%, PLC-dependent Ca2+ response” value [5]?
A: Its value is 14.1 ± 0.8 s and 14 ± 1 s.

Q: What does the source list for COc1cc(C=O)ccc1O [vanillin]?
A: decay time 90% to 10%, AC-dependent Ca2+ response [1]: 101.7 ± 2.6 s; time of peak, AC-dependent Ca2+ response [1]: 85.3 ± 2.9 s; time to rise 10% to 90%, AC-dependent Ca2+ response [1]: 31.4 ± 1.3 s; solubility [2]: 28 mmol/L (≈ 4260 µg/mL); functional bias between PLC and AC pathways (in words) [3]: activated both pathways with similar EC50 values; decay time 90% to 10%, PLC-dependent Ca2+ response [5]: 48 ± 2.9 s; time of peak, PLC-dependent Ca2+ response [5]: 18.6 ± 0.9 s; time to rise 10% to 90%, PLC-dependent Ca2+ response [5]: 8.3 ± 0.5 s

Q: For CCOc1cc(C=O)ccc1O [ethyl vanillin], which EC50 [1] is on record?
A: The EC50 was 2170 ± 131 µM.

Q: What about the “decay time 90% to 10%, AC-dependent Ca2+ response” value [1] of the same compound?
A: The value was 115.7 ± 10.8 s.

Q: What about the “time of peak, AC-dependent Ca2+ response” value [1] of the same compound?
A: The value was 91.6 ± 5.8 s.

Q: What about the “time to rise 10% to 90%, AC-dependent Ca2+ response” value [1] of the same compound?
A: The value was 36.9 ± 3.3 s.

Q: And the solubility [2]?
A: The solubility was 11 mmol/L (≈ 1830 µg/mL).

Q: And the “functional bias between PLC and AC pathways (in words)” value [3]?
A: Its value is “activated both pathways with similar EC50 values”.

Q: What about the logP [4] of the same compound?
A: Its logP is 1.7.

Q: What about the EC50 [5] of the same compound?
A: Its EC50 is 1490 µM.

Q: What about the “decay time 90% to 10%, PLC-dependent Ca2+ response” value [5] of the same compound?
A: The value was 52.3 ± 4.8 s.

Q: And the “time of peak, PLC-dependent Ca2+ response” value [5]?
A: Its value is 22.6 ± 1.5 s.

Q: What about the “time to rise 10% to 90%, PLC-dependent Ca2+ response” value [5] of the same compound?
A: The value was 9.5 ± 0.8 s.

Q: Which results are given for C/C=C/c1ccc(OC)c(OC)c1 [methyl isoeugenol]?
A: solubility [2]: 3.6/3.05 mmol/l; antagonism of eugenol-evoked Ca2+ response ([3]; 1mM with 100 μM eugenol, both mOR-EG/Gα15 and mOR-EG/Gαs(olf) cells): completely eliminated Ca^2+ response; also recorded: potent antagonist that inhibits eugenol activation of both the mOR-EG/PLC and mOR-EG/AC responses; AC-/PLC- mediated Ca2+ response (result in words) [3]: failed to activate any response; also recorded: did not evoke any appreciable Ca^2+ signal; also recorded: does not activate either pathway; also recorded: non agonist, antagonist; response to prolonged application ([3]; data not shown): did not evoke any measurable response; agonist activity in cAMP-dependent Cre reporter assay [10]: strong agonist
